Data on three substances can be found in patent US20090203877A1, “X-RAY-DENSE CONJUGATE” (Eberhard-Karls-Universitaet Tuebingen Universitaetsklinkum, priority 2006, published 2009).

Holding throughout (type): cell-based
Assay [1] relates to human malignant LN18 glioma cells. Put plainly: Uptake/staining of cells by FITC-labelled conjugates (CLSM, FACS, semi-thin sections). The conditions noted are these: 20 min; for stained cells: 260 μM in PBS; for nuclear staining of cells (CLSM), in words: 260 μM.
For assay [2] the test system is unchanged. Put plainly: Cell viability / cell death (annexin-V-Alexa 568 binding, propidium iodide, FACS scatter morphology). The conditions noted are these: 260 μM, 20 min, substance alone. As to the method: All measurements were performed on living, non-fixed cells. […] All measurements were performed on living cells. […] All measurements were performed on living cells in triplicates. […] All measurements were performed on living cells.

The test system of assay [3] is human malignant U373 glioma cells. Put plainly: Uptake/staining of cells by FITC-labelled conjugates (fluorescence microscopy, CLSM, FACS, semi-thin sections). The conditions noted are these: for strongly labeled (heavily stained) cells, FACS: 20 min incubation; for stained cells: 260 μM in PBS, 20 min (experiments with conjugates 9-15). As to the method:
Fluorescence was measured in a Becton Dickinson FACSCalibur. […] The investigations were performed in triplicate.
For CT and FACS human U373 glioma cells were grown under the same conditions in 75 cm^2 culture flasks (Corning Costar, Bodenheim, Germany) (70% confluency). Accutase™ (PAA laboratories, Pasching, Austria) was added to achieve detachment of the cells which were harvested and subsequently aliquoted into Eppendorf tubes (6×10^6 cells per tube). As in the investigations performed by fluorescence microscopy, the cells in the first tube served as a control (PBS only). The cells in the other tubes were incubated with 260 μM Ultravist, 260 μM TIBA in PBS and 26 μM, 260 μM and 2.6 mM conjugates 1-4 in PBS. After a 20 minute incubation period at 37° C. in an atmosphere of 5% CO2, the cells were washed three times in PBS and centrifuged at 800 rpm for 5 minutes.
The FACS analysis was performed as described under 1.4.
The human malignant U373 and LN18 glioma cells were cultivated in 75 cm^2 culture flasks (Corning Costar) (70% confluency) under the conditions as described under 1.4, detached from the flask bottom with Accutase™ (PAA Laboratories) and in the following distributed on Eppendorf tubes (Eppendorf, Hamburg, Germany) (6×10^6 per tube). The cells in the first tube serve as a control (only PBS buffer only). The cells in the other ten tubes were each incubated with benzoic acid (BA), monoiodobenzoic acid (MIBA) or diiodobenzoic acid (DIBA) alone (260 μM), conjugate 3 alone (260 μM), conjugate 3 plus either BA, MIBA or DIBA (260 μM), respectively, and the conjugates 9, 10, and 11 alone. (260 μM).
After an incubation of 20 minutes at 37° C./5% CO2 the cells were washed three times with PBS buffer and centrifuged at 800 rpm (rounds per minute) for 5 minutes. The fluorescence was measured in Becton Dickinson FACSCalibur as described under 1.4. The computer tomography was performed as described under 1.5.1. The examinations were repeated two times.
For the CT and FACS examinations human LN-18 and U373 glioma cells were cultivated in 75 cm^2 culture flasks (Corning Costar) (70% confluency) (conditions as described under 1.4). Accutase™ (PAA Laboratories) was added to detach the cells from the bottom of the culture flasks. The cells were collected and then distributed on Eppendorf tubes (6×10^6 cells per tube). The cells in the first two tubes serve as a control (in each case only PBS, LN18 and U373 glioma cells, native). The cells in the other tubes (in each case LN18 and U373 glioma cells) were incubated with a 260 μM or 2.6 mM solution of the conjugate 12 for 20 minutes at 37° C. and 5% CO2 and in the following washed for three times with PBS buffer and centrifuged for 5 minutes with 800 rpm (rounds per minute). For a small amount of the cells it was tested by the MMT test (see 1.4) how many of the cells were still viable. The computer tomography of the cell centrifuges was performed with the Somatom Sensation 16 (Siemens).
The FACS analysis was performed as described under 1.4. The assay was repeated two times.
For the CT and FACS examinations human LN18 and U373 glioma cells were cultivated in 75 cm^2 culture flasks (70% confluency) (conditions as described under section 1). Accutase™ (PAA Laboratories) was added to detach the cell from the culture bottom. The cells were collected and then distributed on Eppendorf-tubes (6×10^6 cells per tube). […] The next three tubes were used for the coincubation of the cells either with trichlorobenzoic acid (TCBA), trifluorobenzoic acid (TFBA) or tribromophenyl Isocyanat (TBPI) and the NLS-FITC-conjugate 3 (260 μM). As control cells were used which were only either incubated with CIBA, FIBA, TBPI (in each case 260 μM in PBS) or with PBS-buffer (native control) alone. […] The computer tomography and FACS analysis of the cell centrifuges were performed as described in 1.5.1 or 1.4, respectively for three times. […]

For assay [4] the test system is unchanged. Put plainly: Computer tomography, signal density of cell pellets.

“Also recorded” adds a separate entry of the source.

Take “PKKKRKVK(FITC)GGK (FITC, GGK linker) [conjugate 3, FITC-labelled correct NLS of the SV 40 T antigen without TIBA]”: the stained cells in assay [1] was found to be 9%; in assay [3], 8%. The “nuclear staining of cells (CLSM), in words” value in assay [1] was “nuclear staining of few cells; also recorded: does only stain the nucleus of few cells”. Moreover, in assay [2], the “cell death / vitality (annexin-V-Alexa 568, propidium iodide)” value is listed as “remain vital; also recorded: did not show any signs of cell death; also recorded: without a sign of cell dead”. Further, the results for the “strongly labeled (heavily stained) cells, FACS” value in assay [3] (26 μM), in assay [3] (260 μM) and in assay [3] (2.6 mM) were 6%, 7% and 10%, respectively. Moreover, the “number of stained cells / cellular staining rate” value in assay [3] (conjugate co-incubated with free TIBA (260 μM)) is reported as “not associated with a higher cellular staining rate; also recorded: did not result in any changes”.
As to “PKKKRKVK(FITC)GGK(BA) (FITC, GGK linker, benzoic acid) [conjugate 9, FITC-labelled NLS of the SV 40 T antigen with non-iodized benzoic acid]”, in assay [1], the stained cells came out at 9% and the “nuclear staining of cells (CLSM), in words” value was “nuclear staining of few cells; also recorded: the staining rate did not increase”. Moreover, the “cell death / vitality (annexin-V-Alexa 568, propidium iodide)” value in assay [2] was “remain vital; also recorded: no signs of cell death; also recorded: remain viable”. The stained cells in assay [3] was found to be 8%.
Take “PKKKRKVK(FITC)GGK(TIBA) (FITC, GGK linker, TIBA) [conjugate 1, FITC-labelled correct NLS of the SV 40 T antigen with TIBA]”: the “CT signal density of cell pellets” value is “only low signal density values” in assay [4] (26 μM, 20 min); “significant increase in signal density” in assay [4] (260 μM, 20 min); “significant increase in signal density” in assay [4] (2.6 mM, 20 min); “did result in differences in signal densities” in assay [4] (varying concentrations (26 μM, 260 μM and 2.6 mM) and PBS alone). For the same substance, the “strongly labeled (heavily stained) cells, FACS” value is on record as 32% in assay [3] (26 μM), 32% in assay [3] (260 μM) and 93% in assay [3] (2.6 mM). Also, the “staining of cell nuclei (CLSM overview)” value in assay [3] (260 μM) is reported as “A very large number of cell nuclei has been stained”. The “staining of nucleoli in semi-thin sections (about 0.4 μm)” value in assay [3] (fluorescence microscopy after incubation) is given as “clearly stained”.
